Experimental data published in patent US20210134398A1, “Combinatorial Chemistry Computational System and Enhanced Selection Method” (Southern Methodist University, priority 2019, published 2021).
Entries after “also recorded” stand apart in the source; their conditions may differ. Read-outs that look alike come from different tables or passages of the source.

How the values were obtained:
[1] = target: T1, Normal Human MDR1 P-glycoprotein (Homo sapiens, UniProt P08183); experiment: ATPase activity assay (basal and verapamil-stimulated), P-gp in nanodiscs; assay type: biochemical; conditions: for Effect on stimulated ATPase / Stimulated ATPase: in the presence of verapamil; for Stimulated ATPase / Basal ATPase: ± standard deviation; for Effect on basal ATPase / Basal ATPase: no added transport substrate
T1 construct: made in house; host or cells: Pichia pastoris (P-gp); E. coli BL21 (DE3) (MSP1E3D1)
Description: To assess whether the observed discrepancies of compounds stimulating basal P-gp ATPase activity but not being transport substrates of the human pump in the cell culture assessments were due to the fact that these biochemical assays used a cysteineless variant of the mouse MDR3 P-glycoprotein, the experiments were repeated using normal human MDR1 P-gp. In order to stabilize the human protein for the activity assays, the protein was assembled into membrane nanodiscs as described herein.
P-glycoprotein Purification. Cysteine-less MDR3 and the human normal MDR1 P-glycoprotein was recombinantly expressed in the yeast Pichia pastoris essentially as in^45, 46 and used for assaying ATP hydrolysis and ATP binding to the protein in the presence of the 29-variants. Purification of the protein was performed as described^49 with small modifications resulting in highly enriched P-gp in mixed micelles containing dodecyl maltoside (DDM) and lysophosphatidyl choline^26.
Nanodisc assembly. Human P-gp in mixed detergent micelles obtained during protein purification, was reconstituted into nanodiscsas described in references^73, 74 with small modifications. […] The detergent was removed with Bio-Beads™ SM-2 Adsorbent Media (BioRad). Ni-NTA Agarose (Qiagen) chromatography was used to purify P-gp reconstituted nanodiscs using 6 bed volumes of start buffer (20% (v/v) glycerol, 50 mM Tris-CL pH 7.5 at 4° C., 50 mM NaCl), and 5 bed volumes of elution buffer (20% (v/v) glycerol, 50 mM Tris-Cl pH 7.5 at 4° C., 50 mM NaCl, 300 mM imidazole).
ATPase Activity Assays. ATP hydrolysis activity was measured using a coupled enzyme assay^72 as modified in reference^26.

[2] = tested on: P-gp overexpressing prostate cancer cell line, DU145TXR; experiment: MTT cell viability assay, resensitization to paclitaxel; assay type: cell-based, human; conditions: for Fold vs PTX + 29: vs paclitaxel + parental compound 29; for Fold vs PTX (fold increased sensitivity): vs paclitaxel alone; for Resensitization of DU145TXR to paclitaxel / MDR reversal (in words): 3 to 10 μM inhibitor
Description: The Group 1 ChemGen/docking routine produced variants of P-gp inhibitor 29 resensitize a multidrug resistant, P-gp overexpressing prostate cancer cell line to paclitaxel. The mitochondrial reduction potential of cells is often used as an indicator for cell viability using MTT assays^4. Using these assays it was observed that the five Group 1 derivatives of 29 predicted through the ChemGen/docking routine and synthesized here, 216, 227, 231, 541 and 551, re-sensitized the P-gp overexpressing prostate cancer cell line, DU145TXR^33, to the chemotherapeutic, paclitaxel (FIG. 12, showing results of assays at concentrations of 3 μM, 5 μM, 7 μM, and 10 μM).
Cytotoxicity of the chemotherapeutic, paclitaxel (PTX) to P-gp overexpressing prostate cancer cells, DU145TXR, was determined in the absence and presence of the ChemGen designed 29-variants, 216, 227, 231, 541 and 551. For each experimental compound IC50 values of PTX alone or in the presence of inhibitors, fold improvement of PTX sensitivity in the presence of inhibitor, and fold improvement of PTX sensitivity by variants compared to parental compound 29 are given.
Effects of Group 2 variants on the paclitaxel sensitivity of P-glycoprotein overexpressing prostate cancer cells, DU145TXR. MTT assays were again used to assess the efficacy of the new structural 29-variants on sensitizing the chemotherapy-resistant prostate cancer cell line, DU145TXR, to paclitaxel, at concentrations of 3 μM, 5 μM, 7 μM, and 10 μM as shown in FIG. 15 and Table 4.
MTT cell viability assay. Cells were trypsinized from monolayers and seeded with 3000 cells in 150 μL of complete medium in a 96 well plate. After 24 hours, cells were treated for 48 hours with paclitaxel (Acros Organics, NJ) and/or P-gp inhibitory compounds dissolved in DMSO, or DMSO controls. All additions were diluted into complete medium. After 48 hours of treatment, MTT assays were performed as described^41 using 5 mg/mL of MTT (Acros Organics, NJ) solution prepared in PBS (137 mM NaCl, 2.7 mM KCl, 10 mM Na2HPO4, 1.8 mM KH2PO4, pH 7.4). After 4 hours of incubation with MTT, the media was removed and the formazan crystals were dissolved in 100 μL of DMSO. The absorbance at 570 nm was then measured using a BioTek Cytation 5 imaging multi-mode reader (Bio-Tek, Winooski, Vt.). Percent viability was calculated using DMSO treated cells as representative for 100% viability, according to Equation 1. Background absorbance was determined using MTT and complete medium without cells and subtracted from all the test values. Equation 1:
The results were plotted as the mean with standard deviation (SD) of eight replicates per concentration from at least two independent experiments with n=8. The graphical representations and IC50 values were determined using four parameter variable slope non-linear regression, using the following equation: Y=bottom+(top-bottom)/(1+10^((log IC50−X)*Hill Slope) (GraphPad Prism™, La Jolla Calif., USA, Version 6.05). The reported “fold sensitization” was calculated as follows, per Equation 2: […]

[3] = target: P-gp (P-gp over-expressing cell line, DU145TXR) (Homo sapiens, UniProt P08183); experiment: Cellular accumulation of experimental compounds by LC-MS/MS with and without tariquidar
Experimental: Stimulation of basal ATPase by 29-variants was used as an indicator that a compound may be a P-gp transport substrate. Effects on stimulated P-gp ATPase activity indicated whether a compound directly interfered with ATP usage by the protein (***, p<0.001; **, p<0.01; *, p<0.1; NS, not significant). Quantitative cellular accumulation of 29-variants was performed using LC-MS/MS and is presented as a ratio of the cellular amounts of 29-variants in the presence of P-gp inhibitor, tariquidar, divided by amounts accumulated in its absence. […] Binding of an ATP analog, SL-ATP, to P-gp was used to determine whether ATP binding to P-gp was affected by the 29-variants. Values +/−standard deviations are shown for at least three different P-gp preparations and three independent SL-ATP titration experiments. The values for SL-ATP binding in the presence of 29 were taken directly from Brewer et al. (2014).
Intracellular accumulation of compound 29 variants. Cell accumulation assays for each of the 29 variants were performed as in reference^28 to more directly assess whether the compounds were indeed transport substrates for P-gp.
Cellular Accumulation Assays for Experimental P-gp Inhibitors. Cells used (DU145TXR), cell culturing, cell exposure to compounds, cellular handling and extractions were performed as described in^28. LC-MS/MS methods were performed as described in^71 and as modified in^28.

Chain of P-gp (P-gp over-expressing cell line, DU145TXR) (P08183 whole entry): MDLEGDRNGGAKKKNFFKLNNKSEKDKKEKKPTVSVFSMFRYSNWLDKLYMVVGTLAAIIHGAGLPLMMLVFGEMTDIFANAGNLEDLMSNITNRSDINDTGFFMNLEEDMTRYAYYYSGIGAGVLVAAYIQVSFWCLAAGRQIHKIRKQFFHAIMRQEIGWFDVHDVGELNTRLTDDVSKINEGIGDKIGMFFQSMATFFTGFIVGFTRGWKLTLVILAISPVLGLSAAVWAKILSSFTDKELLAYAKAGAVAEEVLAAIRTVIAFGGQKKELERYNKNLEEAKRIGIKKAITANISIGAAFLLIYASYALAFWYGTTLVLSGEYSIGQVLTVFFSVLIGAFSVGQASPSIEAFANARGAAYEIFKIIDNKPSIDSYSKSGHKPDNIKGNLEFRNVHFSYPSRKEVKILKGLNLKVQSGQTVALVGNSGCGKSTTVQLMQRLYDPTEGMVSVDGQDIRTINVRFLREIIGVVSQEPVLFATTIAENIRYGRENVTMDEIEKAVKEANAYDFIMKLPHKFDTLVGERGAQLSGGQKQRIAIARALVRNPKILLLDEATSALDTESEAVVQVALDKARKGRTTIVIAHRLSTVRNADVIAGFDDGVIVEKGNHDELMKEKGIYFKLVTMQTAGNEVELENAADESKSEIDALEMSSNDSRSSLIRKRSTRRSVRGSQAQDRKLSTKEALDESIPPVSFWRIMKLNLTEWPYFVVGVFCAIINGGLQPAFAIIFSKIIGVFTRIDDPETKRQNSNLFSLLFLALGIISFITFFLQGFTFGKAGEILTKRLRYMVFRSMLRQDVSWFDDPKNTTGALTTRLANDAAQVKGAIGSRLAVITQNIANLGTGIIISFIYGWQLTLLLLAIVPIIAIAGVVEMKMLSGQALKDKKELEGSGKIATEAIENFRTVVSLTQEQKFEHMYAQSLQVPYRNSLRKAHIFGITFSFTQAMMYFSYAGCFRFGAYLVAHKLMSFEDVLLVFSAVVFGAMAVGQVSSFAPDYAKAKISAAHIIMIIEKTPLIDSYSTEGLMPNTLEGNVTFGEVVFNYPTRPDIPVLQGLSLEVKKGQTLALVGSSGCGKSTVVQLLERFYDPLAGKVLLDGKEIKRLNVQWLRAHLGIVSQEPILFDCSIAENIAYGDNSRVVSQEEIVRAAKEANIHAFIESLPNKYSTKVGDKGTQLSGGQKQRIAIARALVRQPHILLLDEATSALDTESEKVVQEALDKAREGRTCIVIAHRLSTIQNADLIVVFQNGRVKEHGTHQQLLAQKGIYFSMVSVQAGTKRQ
T1 sequence (P08183 whole entry): as above

Effect on stimulated ATPase [1] | Stimulated ATPase [1] | Effect on basal ATPase [1] | Basal ATPase [1] | Cellular accumulation: ratio of plus Tariquidar over no Tariquidar [3] | Intracellular accumulation in absence vs presence of tariquidar (in words) [3] | Cellular accumulation: ratio of plus Tariquidar over no Tariquidar ([3]; human) | Compound | Fold vs PTX + 29 ([2]; 3 μM inhibitor) | Fold vs PTX (fold increased sensitivity) ([2]; 3 μM inhibitor) | Fold vs PTX + 29 ([2]; 5 μM inhibitor) | Fold vs PTX (fold increased sensitivity) ([2]; 5 μM inhibitor) | Fold vs PTX + 29 ([2]; 7 μM inhibitor) | Fold vs PTX (fold increased sensitivity) ([2]; 7 μM inhibitor) | Fold vs PTX + 29 ([2]; 10 μM inhibitor) | Fold vs PTX (fold increased sensitivity) ([2]; 10 μM inhibitor) | Fold vs PTX + 29 ([2]; 3 μM inhibitor, listed as 227) | Resensitization of DU145TXR to paclitaxel / MDR reversal (in words) ([2]; listed as 227) | Resensitization of DU145TXR to paclitaxel / MDR reversal (in words) ([2]; listed as 238)
inhibitor | 62 ± 3 % of DMSO | none | 88 ± 9 % of DMSO | 1.0 | no significant difference | – | Cc1cc(C)c(-c2cc(NC(=O)CSc3nnc(C4CC4)[nH]3)n(-c3ccccc3)n2)cc1C [compound 29, reference compound] | 1 fold | 3 fold | 1 fold | 11 fold | 1 fold | 36 fold | 1 fold | 101 fold | – | – | –
inhibitor | 64 ± 6 % of DMSO | inhibitor | 69 ± 8 % of DMSO | 1.1 | – | – | 2-{[2-(9H-flouoren-2-yl)-2-oxoethyl]}-N-[1-phenyl-3-(2,4,5-trimethylphenyl0-1H-pyrazol-5-yl]acetamide [29-216] | – | – | 1.3 fold | 14 fold | 1 fold | 34 fold | 0.4 fold | 37 fold | – | – | –
inhibitor | 62 ± 5 % of DMSO | none | 83 ± 7 % of DMSO | 1.0 | – | – | Cc1cc(C)c(-c2cc(NC(=O)CSCC(=O)N3c4ccccc4CCc4ccccc43)n(-c3ccccc3)n2)cc1C [29-227, 2-[(2-{2-azatricyclo[9.4.0.0]pentadeca-1(11),3(8},4,6,12,14-hexaen-2-yl)-2-oxoethyl)sulfanyl]-N-[1-phenyl-3-(2,4,5-trimethylphenyl)-1H-pyrazol-5-yl]acetamide] | – | 13 fold | 3.7 fold | 41 fold | 10 fold | 353 fold | 5 fold | 530 fold | 3.8 fold | re-sensitized; also recorded: more effective than 29 at all concentrations tested | –
inhibitor | 61 ± 7 % of DMSO | none | 89 ± 7 % of DMSO | – | very large and significant increase | 1.9 | COc1cc(NC(=O)CSCC(=O)Nc2cc(-c3cc(C)c(C)cc3C)nn2-c2ccccc2)cc(OC)c1OC [29-238, N-[1-phenyl-3-(2,4,5-trimethylphenyl)-1H-pyrazol-5-yl]-2-({[(3,4,5-trimethoxyphenyl)carbamoyl]methyl}sulfanyl)acetamide] | 3.4 fold | – | around 100 fold | about a thousand-fold | around 100 fold | – | 300 fold | – | – | – | increased paclitaxel toxicities to the greatest extents; also recorded: vastly outperformed compounds 278, 280 and 286; also recorded: strongest reversal of MDR
